Experimental data: patent publication US20130052646A1, “POSITIVE AND NEGATIVE […] FOR USE IN TH[…]” (Mascoma Corporation, priority 2009, published 2013)

Columns and labels:
Format in all cases: cell-based, Clostridium thermocellum
C. thermocellum [1] = test: Plating on media containing 5-FOA (pyrF negative selection); conditions: for colony survival after plating on 5-FOA: rich media containing 500 μg of 5-FOA; for growth on media containing 5-FOA: FIG. 8
Method: Plasmid pMU482 was transformed into the wild type C. thermocellum strain 1313 and selected on a rich media containing thyamphenicol (at the concentration of 6 μg/ml) to select for cells containing the cat marker encoded on the plasmid. A schematic displaying the creation of the knockout vector is depicted in FIG. 2. Several colonies that resulted from the selection scheme were selected for PCR analysis to confirm that the plasmid had been transformed into the cells. A transformed colony was diluted into liquid, rich medium containing thyamphenicol at the concentration of 6 μg/ml and grown overnight. A culture containing pMU102 (control plasmid) was also grown similarly. The next day, each culture was serially diluted by ten fold (up to 10^−3) using fresh, rich media and 100 μL of the undiluted culture. Each of the dilutions were plated on rich media containing 500 μg of 5-FOA. A schematic of this plating strategy is depicted in FIG. 3.
The plasmid-free C. thermocellum ΔpyrF strain created above was tested to confirm that negative selection could be appropriately applied. Cells were grown and plated using media containing the toxic analog 5-fluoroorotic acid (5-FOA). The protein product of the pyrF gene converts 5-FOA into a toxic compound. Thus, the C. thermocellum ΔpyrF strain should be resistant to 5-FOA, but the wild type or a complemented strain should be susceptible to 5-FOA and unable to grow.

C. thermocellum [2] = test: Plating on 8-azahypoxanthine (hpt negative selection, complementation); conditions: 500 ug/ml 8-AzaH, FIG. 26
Method: Plasmid pMU1657 was transformed into the wild type C. thermocellum strain 1313 and selected for on chloramphenicol. Several colonies were selected and the transformed plasmid was verified by PCR. A colony was diluted into C. thermocellum growth medium and grown overnight. The following morning the dilution closest to an O.D of ˜1.0 was serially diluted and plated on defined medium containing 500 ug/ml 8-azahypoxanthine. Two days later, colonies were observed on the dilution representing 10^−3. Six colonies were selected and PCR screens were performed to verify that the hpt gene had been deleted from the chromosome. After PCR amplification, the expected size of the wild type product having no deletion is 3380 bp and the expected size of the hpt deletion is 2820 bp. […] The colonies were subsequently screened by PCR amplification to confirm that the plasmid had been cured (or lost). In FIG. 25, lane (P) represents the plasmid control that is 3750 bp in size. Colonies that have lost the plasmid would have no product migrating in the lane. The lack of product in lanes 1-6 representing the six different colonies confirm that the plasmid had been cured.
To provide stronger support for this conclusion, the knockout plasmid was reintroduced to look for complementation of the phenotype. […]

C. thermocellum [3] = test: Plating in the presence of FUDR (tdk negative selection); conditions: FIG. 18
Method: To this end, the C. thermocellum pyrF::tdk strain and the control C. thermocellum ΔpyrF strain were plated in the presence of 10 μg/ml FUDR. For each culture, a 10 dilution was used for the plating.

C. thermocellum [4] = test: Plating of cured Δhpt strain on thiamphenicol; conditions: plasmid-cured Δhpt strain; after 5 days
Method: To verify this, the new strain was grown up overnight and plated on thiamphenicol.

C. thermocellum [5] = test: Growth in rich medium with uracil supplementation; conditions: ΔpyrF strain; rich medium with additional 40 μg/ml uracil; 55° C.
Method: Growth rate measurements were performed in a 200 μl volume in a 96-well plate at 55° C. The optical density at 600 nm was read by a Powerwave XS platereader customized by the manufacturer to incubate up to 68° C. (BioTek). The plates were shaken continuously and read at three minute intervals. Each sample was measured in quadruplicate. The specific growth rate (0 was determined by measuring the slope of the natural log-transformed OD readings. A two hour sliding window of OD readings between 0.08 and 1.00 were used for determination of maximum rate μmax. In all cases, the R-squared value was greater than 0.99.
The growth of the pta::gapDHp-cat strain was compared to the wt and ΔpyrF strains in rich medium, with and without uracil supplementation. […] End product analysis was performed on batch fermentations started at pH 7.0 with 5 g/l cellobiose as the primary carbon source under anaerobic conditions with a nitrogen atmosphere and 80 ml working volume. After 48 hours of fermentation the wt and ΔpyrF strain produced about 1 g/l of acetic acid whereas the acetic acid production of the pta::gapDHp-cat was indistinguishable from background levels (average 0.03 g/l).

Question: Which “colony survival after plating on 5-FOA” value (C. thermocellum [1]; colonies containing wild-type pyrF) does the source give for `O=C(O)c1[nH]c(=O)[nH]c(=O)c1F` [5-FOA, 5-fluoroorotic acid] here?
Answer: did not survive

Question: What about the “colony survival after plating on 5-FOA” value (C. thermocellum [1]; colonies that contained the pyrF disruption) of the same compound?
Answer: visible

Question: What about the “growth on media containing 5-FOA” value (C. thermocellum [1]; plasmid-free ΔpyrF strain (also with control plasmid pMU102)) of the same compound?
Answer: able to grow

Question: What about the “growth on media containing 5-FOA” value (C. thermocellum [1]; ΔpyrF strain transformed with complementing plasmid pMU612 expressing pyrF) of the same compound?
Answer: no growth

Question: What does the source list for `O=c1[nH]cnc2nn[nH]c12` [8-azahypoxanthine]?
Answer: sensitivity to 8-azahypoxanthine (C. thermocellum [2]; Δhpt strain containing complementing plasmid pMU1657): sensitivity comparable to wild type levels; sensitivity to 8-azahypoxanthine (C. thermocellum [2]; Δhpt strain): completely insensitive

Question: What does the source list for `O=c1[nH]c(=O)n([C@H]2C[C@H](O)[C@@H](CO)O2)cc1F` [FUDR, fluorodeoxyuridine]?
Answer: growth in the presence of FUDR (C. thermocellum [3]; control ΔpyrF strain without tdk, 10 μg/ml FUDR): survived; growth in the presence of FUDR (C. thermocellum [3]; pyrF::tdk strain, 10 μg/ml FUDR with addition of thymidine): did grow; growth in the presence of FUDR (C. thermocellum [3]; pyrF::tdk strain, 10 μg/ml FUDR): did not grow

Question: Which “resistant colonies on thiamphenicol” value (C. thermocellum [4]) does the source give for `CS(=O)(=O)c1ccc([C@@H](O)[C@@H](CO)NC(=O)C(Cl)Cl)cc1` [thiamphenicol] here?
Answer: no thiamphenicol resistant colonies were observed

Question: Which “effect of uracil supplementation on growth” value (C. thermocellum [5]) does the source give for `O=c1cc[nH]c(=O)[nH]1` [uracil] here?
Answer: eliminated the growth defect
